Reference: patent publication US20240293365A1, “METHODS FOR TREATING AND AMELIORATING T CELL RELATED DISEASES” (The Regents of the University of California, priority 2021, published 2024)
Values belong to the molecule of their own block, whether it stands above or below them.

Target: T1, ZAP70 kinase (Homo sapiens, UniProt P43403)
T1 construct: The FRET change is mediated by the kinase domain; saFRET biosensor module (FRET pair and sensing unit); expressed in transfected cells; host or cells: HEK293
T1 sequence (P43403 338-600 limits assumed): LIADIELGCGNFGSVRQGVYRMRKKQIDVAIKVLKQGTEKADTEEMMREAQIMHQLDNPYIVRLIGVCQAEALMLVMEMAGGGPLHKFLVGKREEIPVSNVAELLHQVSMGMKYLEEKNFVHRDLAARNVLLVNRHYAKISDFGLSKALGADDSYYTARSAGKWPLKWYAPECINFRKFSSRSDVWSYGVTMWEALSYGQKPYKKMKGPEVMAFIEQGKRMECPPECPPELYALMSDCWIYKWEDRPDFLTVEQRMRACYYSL
Assay: saFRET-HTDS: ZAP70 saFRET biosensor screening of a 96-member kinase inhibitor library in HEK293 cells
Format: cell-based
Conditions: for top 10 selected inhibitors of the saFRET screening: 96-member kinase inhibitor library, 10 μM, FIG. 2D
Procedure: We first screened a 96-member kinase inhibitor library to identify efficient inhibitors of ZAP70 kinase. […] After 40 minutes of incubation with inhibitors, the cells were imaged, and the FRET ratio changes of individual inhibitors compared to the solvent control were calculated to identify promising candidates after this primary endpoint screening (FIG. 2). We further exploited a control biosensor with a kinase-dead domain (saFRETkd) for counter screening to eliminate false-positive hits due to auto-fluorescence or other non-specific effects (1).
C, Schematics of saFRET assay in HEK293 cells.
A, Schematics of the high throughput drug screening platform. First, the cells cultured in 96-well glass-bottom plate were treated either with DMSO or inhibitors from the kinase inhibitor library. After 40 minutes of incubation, the cells were imaged, and the FRET ratio change compared to the control cell was calculated.

SMILES: NC1CCCN(c2c(/C=C3/SC(=O)NC3=O)cccc2-c2ccccc2)C1 (stereo not drawn) [AZD 1208]
top 10 selected inhibitors of the saFRET screening: top 10

SMILES: Cc1[nH]c(/C=C2\C(=O)Nc3ccc(S(=O)(=O)Cc4c(Cl)cccc4Cl)cc32)c(C)c1C(=O)N1CCC[C@@H]1CN1CCCC1 [PHA-665752]
top 10 selected inhibitors of the saFRET screening: top 10

SMILES: Cn1cc(-c2nc(N[C@@H]3CCCC[C@@H]3N)c(F)c3c2C(=O)NC3)cn1 [TAK-659]
inhibition of ZAP70 kinase domain-mediated activation of saFRET biosensor (FRET ratio change vs solvent control) (inhibitor 10 μM, 40 minutes incubation): relatively ineffective

SMILES: COc1ccc2cc(-c3nc(-c4ccc([S+](C)[O-])cc4)[nH]c3-c3ccncc3)ccc2c1 (stereo not drawn) [Tie2 kinase inhibitor]
top 10 selected inhibitors of the saFRET screening: top 10

SMILES: CN[C@@H]1C[C@H]2O[C@@](C)([C@@H]1OC)n1c3ccccc3c3c4c(c5c6ccccc6n2c5c31)C(=O)NC4 [staurosporine]
top 10 selected inhibitors of the saFRET screening: top 10

Next, values leading:

top 10 selected inhibitors of the saFRET screening: top 10
SMILES: NC(=O)Nc1cc(-c2cccc(F)c2)sc1C(=O)N[C@H]1CCCNC1 [AZD 7762]

top 10 selected inhibitors of the saFRET screening: top 10
SMILES: CCn1c(=O)c(-c2ccc(-c3cncs3)cc2Cl)cc2cnc(Nc3ccc(N4CCN(C)CC4)cc3)nc21 [FRAX 597]

top 10 selected inhibitors of the saFRET screening: top 10
SMILES: CNC(=O)c1ccccc1Nc1nc(Nc2ccc(N3CCOCC3)cc2OC)ncc1Cl [NVP-TAE226]

top 10 selected inhibitors of the saFRET screening: top 10
SMILES: COc1cc2c(Nc3ccc(NC(=O)c4ccccc4)cc3)ncnc2cc1OCCCN1CCOCC1 [ZM 447439]
